Here are results for two compounds from publication PMC5371824, “Phosphatidylinositol (4,5)-bisphosphate dynamically regulates the K2P background K^+ channel TASK-2” (Scientific Reports, 2017).

Several values for one entry are separate records, joined by “and”; a condition that tells them apart may be missing. Identical values can stand only once. Like-named read-outs stand apart in the source and are kept apart here.

Data set [1] concerns the target T1, TASK-2 (Mus musculus, UniProt F6V9U5).
T1 construct: expressed in transfected cells; host or cells: HEK-293
T1 sequence (F6V9U5 1-502): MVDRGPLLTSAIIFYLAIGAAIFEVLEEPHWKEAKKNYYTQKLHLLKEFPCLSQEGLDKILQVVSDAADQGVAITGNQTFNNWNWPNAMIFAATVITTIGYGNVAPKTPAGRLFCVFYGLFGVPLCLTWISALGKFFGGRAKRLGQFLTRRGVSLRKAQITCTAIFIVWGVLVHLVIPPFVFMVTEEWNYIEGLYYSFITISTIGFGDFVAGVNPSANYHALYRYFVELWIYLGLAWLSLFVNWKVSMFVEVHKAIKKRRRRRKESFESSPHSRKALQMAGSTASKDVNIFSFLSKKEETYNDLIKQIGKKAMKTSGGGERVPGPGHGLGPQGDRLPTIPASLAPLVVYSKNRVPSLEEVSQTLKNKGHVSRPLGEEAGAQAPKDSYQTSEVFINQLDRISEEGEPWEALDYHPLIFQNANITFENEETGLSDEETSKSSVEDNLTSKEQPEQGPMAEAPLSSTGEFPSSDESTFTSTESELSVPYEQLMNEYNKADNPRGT
The data set can be described thus: Excised inside-out patch recording from HEK-293 cells over-expressing TASK-2. The data set is classed as biochemical. The settings on record: for IC50: WT TASK-2, inside-out patch, mean ± SEM, read-out: IC50 for neomycin inhibition of TASK-2 current.

A further data set concerns KCNQ1/KCNE1. Also on record: method as in PMID 21576493. The settings on record: read-out: EC50 for PI(4,5)P2 effect; cited from earlier work.
Data set [2] deals with T1, TASK-2. The data set can be described thus: Whole-cell patch-clamp of HEK-293 cells expressing TASK-2. The data set is classed as cell-based. The settings on record: whole-cell, 1 mM intracellular ATP, 0 mV. How it is done:
(§1) Mus musculus TASK-2 (GenBank accession No. AF319542) plasmid was that obtained from mouse kidney. The cDNAs was subcloned into the pCR3.1 vector. Mutations were made by site-directed mutagenesis into the pCR3.1 vector as previously described[69] and confirmed by sequencing. HEK-293 cells were cultured in Dulbecco’s modified Eagle’s medium (DMEM) and F12 Ham’s medium at a 1:1 ratio and supplemented with 10% fetal calf serum at 37 °C in 5% CO2. For electrophysiological experiments, transient transfections were performed by electroporation, using CD8 cotransfection to identify effectively transfected cells. […] Experiments were performed 4–8 h after electroporation. In experiments with the voltage-sensitive phosphatase TASK-2 or its mutants were co-electroporated with a pCR3.1-DrVSP-IRES-CD8 vector.
Transiently transfected HEK-293 cells in 35 mm Petri dishes were transferred to the stage of an inverted microscope for study. There they were continuously superfused with a bathing solution containing (in mM): 67.5 Na2SO4, 4 KCl, 1 K gluconate, 2 CaCl2, 1 MgCl2, 105 sucrose, and 10 Hepes/Tris (pH 7.5) (standard solution). A high K^+ solution was obtained by equimolar replacement of Na^+ by K^+. The pipette solution contained (mM) 8 KCl, 132 potassium gluconate, 1 MgCl2, 10 EGTA, 1 Na3ATP, 0.1 GTP, 10 HEPES/Tris, pH 7.4. Standard whole-cell, patch-clamp recordings were performed as described elsewhere. All our whole-cell experiments keep both intra- and extracellular chloride at 10 mM and although currents were measured at several potentials, data mostly reported are those obtained at 0 mV. Potentials were corrected for liquid junction shifts. Acquisition and analysis was done with Clampfit 9.0 (Axon Instruments, Foster City, CA, USA). Further data analysis was done using the curve fitting features of SigmaPlot v. 12 (Systat Software Inc., San Jose, CA, USA).
On the technique in general: Patch clamp records ionic current or voltage across a cell membrane.

The next data set relates to TASK-2-R438C. The data set can be described thus: Excised inside-out patch recording, TASK-2-R438C mutant. The data set is classed as biochemical, Mus musculus. More on the design: key to Neomycin inhibition: ✓ under Neomycin inhibition indicates a significantly lower IC50 for inhibition by neomycin compared to control; — in all cases stands for no significant effect. As for the experimental part: as §1
Recordings in the inside-out isolated patch configuration were performed in the gap-free mode at −60 mV. The inside aspect of the patch was bathed with a solution containing in mM: 10 KCl, 10 Glucose, 1 MgCl2, 10 EGTA, 1 Na3ATP, 0.1 GTP, 6.8 g/100 ml Sucrose, 10 Hepes/Tris, pH 7.4. The pipette contained in mM: 140 KCl, 10 Glucose, 6.8 g/100 ml Sucrose, 10 Hepes/Tris pH 7.4. For isolated patches, borosilicate capillaries (Harvard Apparatus GC150F-10 1.5 ODx0.86 ID) were fire polished to 4–5 MΩ and covered in beeswax. Acquisition was at 10 kHz with filter at 3 kHz (4-pole Bessel) and analysis was done with Clampfit 9.0 (Axon Instruments, Foster City, CA, USA). Traces shown are prints from crude Clampfit screen shots and quantification was done using the average currents were calculated at intervals using Clampfit after baseline adjustment.
Fig. S7. Concentration ependence for the inhibition of TASK-2 mutant R438C by
intracellular neomycin. Recording were obtained from excised inside-out patches of
membrane taken from a HEK-293 cells over-expressing TASK-2-R438C. The patches were
held at -60 mV in the presence of 1 mM intracellular ATP. Neomycin was increased
stepwise from 5 to 500 µM in the solution bathing the intracellular aspect of the membrane. […]

In another data set the test system is Kir4.1/Kir5.1. More on the design: method as in PMID 18690035. The settings on record: read-out: neomycin IC50; cited from earlier work.

The EC50 is the concentration giving half of the maximal effect. As for `CCCCCCCC(=O)OC[C@H](COP(=O)(O)O[C@@H]1[C@H](O)[C@H](O)[C@@H](OP(=O)(O)O)[C@H](OP(=O)(O)O)[C@H]1O)OC(=O)CCCCCCC` [PI(4,5)P2, phosphatidylinositol 4,5-bisphosphate diC8], the “Effect of readmitted ATP relative to the maximal effect elicited by the PIP” value on TASK-2 [1] (1 mM ATP added after PIP, inside-out patches, Fig. S3) is 1.7 fold. Also, the “Stimulating effect on TASK-2-mediated currents after run-down” value at TASK-2 [1] (diC8 PIP added to inside-out excised patches, absence of ATP) was “Robust, but intermediate effects”. Moreover, the “Maximal fold effect on TASK-2 current (normalised to current in absence of PIP)” value at TASK-2 [1] (diC8 PIP, inside-out patch, -60 mV, absence of ATP, from fits, means ± SEM) turned out to be 3.7 ± 0.2 fold. Moreover, the EC50 at TASK-2 [1] (diC8 PIP, inside-out patch, -60 mV, absence of ATP, from fits, means ± SEM, read-out: K0.5 (EC50) for activation of TASK-2 current) was 34.9 µM and 35 µM; with KCNQ1/KCNE1, 5 µM.
In general, IC50 refers to the midpoint of a concentration-inhibition curve. Regarding neomycin, the figures for the “Inhibition of TASK-2 activity by intracellular neomycin” value at TASK-2 [2] (100 μM in pipette) and at TASK-2 [2] (200 μM in pipette) were “intermediate effect” and “near maximum effect”, respectively. Besides, the “Inhibition of TASK-2 activity in excised inside-out patches” value on TASK-2 [1] (300 μM, -60 mV, 1 mM intracellular ATP) is on record as “strongly inhibited”. For the same compound, the IC50 was ~20 µM on TASK-2 [1] (-60 mV, 1 mM intracellular ATP, neomycin 5 to 500 μM intracellular, n = 4); 23.4 ± 2.7 µM on TASK-2 [1] (graded intracellular neomycin, four experiments, unit inferred); 8.9 ± 1.5 µM in the data set with TASK-2-R438C (inside-out patch, -60 mV, 1 mM intracellular ATP, neomycin 5 to 500 µM, mean ± SEM, n=4, read-out: IC50 for neomycin inhibition of TASK-2-R438C current); 110 µM in the data set with Kir4.1/Kir5.1. The “Inhibition of TASK-2 activity by polycation PI scavengers” value on TASK-2 [1] (in the presence of intracellular ATP) is given as “inhibit TASK-2 activity”. Further, the Neomycin inhibition entry in the data set on TASK-2-R438C (mutation R438C, IC50 compared to WT TASK-2) is reported as “✓”.
